Reference: patent US9642854B2, “Flavanoid compounds and process for preparation thereof” (Council of Scientific & Industrial Research, priority 2009, dated 2017)
Converted amounts (≈) assume the structure as drawn. Like-named read-outs stand apart in the source and are kept apart here. Values belong to the compound of their own block, whether it stands above or below them.

Key:
Format in all cases: cell-based, Helicobacter pylori
H. pylori [1] = assay: Acid stability study (pH ~2.0, 2 h, then MIC/MBC by microbroth dilution); conditions: Helicobacter pylori
Procedure: Details of experimental protocol are described under Experiment 7. MIC/MBC values were determined by microbroth dilution assay.
A 100 μL stock of CPP-1, NMC-1, NMC-2 and CPP-3 (1-2 mg/mL) was treated with 20-30 μL of 0.12 NHCl to bring the pH of the solution to ^˜2.0, and kept at 25° C. for 2 h (Funatogawa et al., 2004). Such acid-treated samples were then serially diluted (2 fold) with medium in 96-well microtitre plates to determine the MIC and the MBC values by microbroth dilution assay as detailed under Experiment 3.

H. pylori [2] = assay: Anti H. pylori screening by disc diffusion susceptibility assay; conditions: for Inhibition zone diameter (score): 100 and 200 mg/disc (so in the source), 72 h; for Inhibition Zone Diameter (mm): spacer molecules
Procedure: The discs were impregnated with […] of each of the compounds, dissolved either in ethanol or DMSO, and the zone of inhibition was measured after 72 h of growth under microaerophilic conditions at 37° C. Inhibition zone diameter ranging 10-20 mm was given a score of ^+, 20-30 mm as ^++ and that of >30 mm as ^+++, as obtained employing dose range of […]/disc. The detailed structural information of the molecules is provided under ‘Description of the Compounds’.
Methods and protocols for the determination of inhibition zone diameter are as stated under Experiment 1, and that of MIC values by microbroth dilution assay as in Experiment 3. ‘Nil’ means zone of inhibition below 10 mm.
The anti H. pylori activity of all 16 flavonoid molecules, 2 naturally isolated and 14 synthetic derivatives, was screened by disc diffusion sensitivity assay employing 2 clinical strains HP001 and HP002, and three standard strains ATCC® 700392, 43504 and 49503. A 0.5 mL inoculum (10^8 CFU/mL) for each bacterial strain tested was flooded on freshly prepared Brain Heart Infusion (BHI) agar plates supplemented with 7% FCS, 0.5% IsoVitalex and 0.0025% DENT® and the discs (5 mm diameter) containing different compounds or antibiotics (dissolved either in ethanol or DMSO) were placed on the agar surface. After incubation for 3 days in a microaerophilic atmosphere at 37° C., the diameter of the zone of inhibition was measured (Glupczynsky, 1996; McNulty et al., 2002).

H. pylori [3] = assay: MIC and MBC by microbroth dilution assay; conditions: Helicobacter pylori
Procedure: The compounds, serially diluted ([…]) in Muller Hinton broth containing 5% FCS, were incubated in 96-well microtitre plate containing fresh cultures of HP001 (˜5.5×10^6 CFU/mL) or ATCC® 43504 (2.65×10^6 CFU/ml) in a final volume of […]. After 72-h of incubation under microaerophilic condition at 37° C., […] of cultures wherein no growth had been detected were streaked on fresh brain heart infusion agar plates for MBC determination.
In microbroth dilution assay employing one clinical and one standard strain, both the bacteriostatic and the bactericidal values were determined for all four compounds as well as for clarithromycin (Table 4). Two-fold serial dilutions were prepared in 96-well microtitre plate containing a total volume of 0.1 mL Mueller Hinton broth supplemented with 5% FCS. A 3-day old liquid culture was diluted 10 times in Mueller Hinton broth and 0.1 mL of these cultures was inoculated into each well to give a final concentration of ˜10^6 CFU/mL. The plates were incubated for 3 days in a microaerophilic atmosphere at 37° C. Following incubation, the plates were examined visually, and the lowest concentration showing complete inhibition of growth was recorded as the MIC of the respective compound (Hachem et al., 1996). Aliquots (0.1 mL) of 72-h culture in which no growth had been detected were taken from the wells of the above microtitre plates and used to streak on fresh BHI agar plates.

H. pylori [4] = assay: Time kill kinetic analyses in biphasic culture
H. pylori [5] = assay: Anti H. pylori spectrum (MIC) by agar dilution method; conditions: Helicobacter pylori; for MIC50: MIC against 50% of the strains of the panel, read-out: MIC50
Procedure: MIC was determined using agar dilution assay following the CLSI® guidelines. Six clinical isolates and four standard strains were used for this study. Five microlitre of freshly grown 3-day old culture (˜1×10^8 CFU/mL) was streaked in plates containing 2-fold serial dilution of the compounds ranging […], and incubated under microaerophilic condition at 37° C. After 72 h, the plates were inspected visually for absence of growth to assess the MIC values. The experiment was performed in duplicates. MIC50 is defined as the dose (μg/ml) required for killing 50% of the strains.
Plates contained two-fold serial dilutions of the compounds ranging from […]. Five microlitres of 3-day old freshly grown H. pylori culture (^˜10^8 CFU/mL) was inoculated onto drug-containing BHI agar plates supplemented with 7% FCS, 0.5% IsoVitalex and 0.0025% DENT®, which were then incubated for 3 days under microaerophilic condition at 37° C.

[6] = ATCC43504, microbroth dilution, ATCC 43504

MIC (H. pylori [1]; 2 h, pH ~2.0, 2 h, 25° C., 43504, read-out: MIC, Acid treated): 25000 µg/mL (≈ 57300 µM)
MIC (H. pylori [1]; 2 h, pH ~2.0, 2 h, 25° C., HP001, read-out: MIC, Acid treated): 12500 µg/mL (≈ 28600 µM)
MIC (H. pylori [1]; not acid treated, 43504, read-out: MIC, Control): 6250 µg/mL (≈ 14300 µM)
MIC (H. pylori [1]; not acid treated, HP001, read-out: MIC, Control): 6250 µg/mL (≈ 14300 µM)
MIC (H. pylori [3]; [6]): 6.25 µg/mL (≈ 14.3 µM)
MIC (H. pylori [3]; microbroth dilution, HP001): 6.25 µg/mL (≈ 14.3 µM)
MIC50 (H. pylori [5]; 72 h): ~6.25 µg/mL (≈ 14.3 µM)
MIC (H. pylori [5]; 72 h, panel of 6 clinical isolates and 4 standard strains, read-out: MIC Range): 6.25 to 12.5 µg/mL (≈ 14.3 to 28.6 µM)
MIC50 (H. pylori [5]): 6.25 µg/mL (≈ 14.3 µM)
MIC (H. pylori [5]; clinical strain HP001, read-out: MIC): 12.5 µg/mL (≈ 28.6 µM)
MIC (H. pylori [5]; clinical strain HP002, read-out: MIC): 6.25 µg/mL (≈ 14.3 µM)
MIC (H. pylori [5]; clinical strain HP003, read-out: MIC): < 6.25 µg/mL
MIC (H. pylori [5]; clinical strain HP004, read-out: MIC): < 6.25 µg/mL
MIC (H. pylori [5]; clinical strain HP005, read-out: MIC): < 6.25 µg/mL
MIC (H. pylori [5]; clinical strain HP006, read-out: MIC): < 6.25 µg/mL
MIC (H. pylori [5]; standard strain 43504, read-out: MIC): < 12.5 µg/mL
MIC (H. pylori [5]; standard strain 43629, read-out: MIC): 12.5 µg/mL (≈ 28.6 µM)
MIC (H. pylori [5]; standard strain 49503, read-out: MIC): 6.25 µg/mL (≈ 14.3 µM)
MIC (H. pylori [5]; standard strain 700392, read-out: MIC): 12.5 µg/mL (≈ 28.6 µM)
Compound: CN1CCN(CCCCCCOc2cc(O)c3c(=O)cc(-c4ccccc4)oc3c2)CC1 [NMC-1, 5-Hydroxy-7-[6-(4-methyl-piperazin-1-yl)-hexyloxy]-2-phenyl-chromen-4-one]
MBC (H. pylori [1]; 2 h, pH ~2.0, 2 h, 25° C., 43504, read-out: MBC, Acid treated): < 25000 µg/mL
MBC (H. pylori [1]; 2 h, pH ~2.0, 2 h, 25° C., HP001, read-out: MBC, Acid treated): 25000 µg/mL (≈ 57300 µM)
MBC (H. pylori [1]; not acid treated, 43504, read-out: MBC, Control): 25000 µg/mL (≈ 57300 µM)
MBC (H. pylori [1]; not acid treated, HP001, read-out: MBC, Control): 12500 µg/mL (≈ 28600 µM)
Inhibition zone diameter (score) (H. pylori [2]; ATCC standard strain 43504): + (Inhibition zone diameter ranging 10-20 mm was given a score of ^+)
Inhibition zone diameter (score) (H. pylori [2]; ATCC standard strain 49503): + (Inhibition zone diameter ranging 10-20 mm was given a score of ^+)
Inhibition zone diameter (score) (H. pylori [2]; ATCC standard strain 700392): + (Inhibition zone diameter ranging 10-20 mm was given a score of ^+)
Inhibition zone diameter (score) (H. pylori [2]; clinical strain HP001): + (Inhibition zone diameter ranging 10-20 mm was given a score of ^+)
Inhibition zone diameter (score) (H. pylori [2]; clinical strain HP002): ++ (20-30 mm as ^++)
MBC (H. pylori [3]; [6]): 25 µg/mL (≈ 57.3 µM)
MBC (H. pylori [3]; microbroth dilution, HP001): 12.5 µg/mL (≈ 28.6 µM)
decrease in cell count within 36 h (H. pylori [4]; ATCC 43504, at MIC value (6.25 μg/mL)): 1 log
killing at MIC dose (1×MIC) (H. pylori [4]; HP001, up to 36 h): could not however exert complete killing even at 36 h

MIC (H. pylori [3]; [6]): > 400 µg/mL
MIC (H. pylori [3]; microbroth dilution, HP001): > 400 µg/mL
Compound: CCCOc1ccc2c(=O)cc(-c3ccccc3)oc2c1 [reference compound]
Inhibition Zone Diameter (mm) (H. pylori [2]; ATCC 43504): Nil (‘Nil’ means zone of inhibition below 10 mm.)
Inhibition Zone Diameter (mm) (H. pylori [2]; HP001): Nil (‘Nil’ means zone of inhibition below 10 mm.)
